# Measured values reported in patent publication US20230332230A1, “BIOMARKERS AND USES THEREOF IN THE TREATMENT OF CHRONIC HEPATITIS B INFECTION” (Janssen Sciences Ireland Unlimited Company, priority 2020, published 2023).
# Key:
# Format in all cases: in vivo, human
# [1] = tested on: chronic hepatitis B (CHB) patients; assay: Time to virological relapse after discontinuation of NUC treatment (Cox proportional hazard regression); conditions: for HR: hazard ratio for virological relapse after stop of treatment, treatment regimen tenofovir vs entecavir
# Excerpt: (§1) Patients and Study Design: In this multi-center prospective study in Taiwan, 242 CHB patients were enrolled while in their last half year of a minimum 3-year treatment regimen with direct antivirals. Of them, 47 were excluded due to protocol violation, screening failure, lost to follow-up, withdrawal by the subject, use of immune related therapy, or on-treatment clinical relapse. An additional 14 were excluded as the analysis required patients to be hepatitis B e-antigen (HBeAg) negative, hepatitis virus (HBV) DNA < 60 IU/mL, and alanine transaminase (ALT) < 80 U/L at the last on-treatment visit, leaving 186 patients eligible for analysis.
# (§2) Patients were followed for up to two years after treatment discontinuation while assessing virological and clinical relapse, provided that treatment was not re-initiated. Virological relapse was defined as HBV DNA ≥ 2000 IU/mL. Clinical relapse was defined as ALT level ≥ 2x ULN in addition to a virological relapse. A patient was denoted a sustained clinical responder in case no clinical and no virological relapse occurred during the entire follow-up period after treatment cessation.
# (§3) Statistical Analysis: Continuous variables are presented as means ± standard deviations, categorical variables by counts and percentages. The Student t test and Fisher exact test were used to compare continuous and categorical covariates, respectively, between groups. Cumulative incidence of virological and clinical relapse after stop of treatment was assessed by Kaplan-Meier curves including the log-rank test. Cox proportional hazard regression analysis was applied for univariate and multivariate models of time to virological and clinical relapse. To assess associations to sustained clinical response, logistic regression analysis was performed. All statistical analyses were executed within the R(3.4.3) statistical software. Statistical tests were two-sided and considered significant at the 0.05 significance level.
# (§4) Statistical Analysis of Genetics Data: All the statistical analyses were performed in R (3.4.3). The association between the SNPs and the time to clinical relapse and time to viral relapse was assessed using a Cox proportional hazard model, considering the prior treatment. • Surv(TIME_VIRAL_RELAPSE,STATUS_VIRAL_RELAPSE) ~ GENETIC + LAST_TREATMENT • Surv(TIME_CLINICAL _RELAPSE,STATUS_CLINICAL_RELAPSE) ~ GENETIC + LAST_TREATMENT
# (§5) Merge With Genetic Data: For both clinical and virological relapse, the significant clinical covariates (Table 4 and Table 5) are merged with the corresponding significant hits from the GWAS analysis. Cox proportional regression analysis with lasso regularization is applied to assess the combined association of the clinical and genetic covariates to relapse. Note that a threshold was set to the absolute values of the coefficients to be included in the final Cox model, equal to 0.35 and 0.2 for clinical and virological relapse respectively.
# (§6) Cumulative incidence of virological and clinical relapse after stop of treatment was assessed by Kaplan-Meier curves. In addition, Cox proportional hazard regression analysis (Therneau Terry M., et al., Statistics in Medicine. 2001, 20(13):2053-2054) was applied, obtaining univariate and multivariate models for time to virological and clinical relapse (model fits are provided in Table 23a and Table 23b for virological and clinical relapse respectively).
# (§7) Statistical Analysis of Genetics Data: Considering that HBsAg status at the end of treatment and treatment regimen were predictive for onset of relapse, the association between the SNPs and onset of relapse was assessed using a Cox model^1 including HBsAg level at the last visit on treatment (high (≥ 100 IU/mL) vs. low (< 100 IU/mL)) and the antiviral treatment at enrollment (tenofovir vs. entecavir) as main effects. […]
# [2] = tested on: chronic hepatitis B (CHB) patients; assay: Time to clinical relapse after discontinuation of NUC treatment (Cox proportional hazard regression)
# Excerpt: as §1, §2, §3, §4, §5, §6, §7
# [3] = tested on: chronic hepatitis B (CHB) patients; assay: Sustained clinical response after discontinuation of NUC treatment (logistic regression)
# Excerpt: Patients and Study Design: In this multi-center prospective study in Taiwan, 242 CHB patients were enrolled while in their last half year of a minimum 3-year treatment regimen with direct antivirals. Of them, 47 were excluded due to protocol violation, screening failure, lost to follow-up, withdrawal by the subject, use of immune related therapy, or on-treatment clinical relapse. An additional 14 were excluded as the analysis required patients to be hepatitis B e-antigen (HBeAg) negative, hepatitis virus (HBV) DNA < 60 IU/mL, and alanine transaminase (ALT) < 80 U/L at the last on-treatment visit, leaving 186 patients eligible for analysis. Patients were followed for up to two years after treatment discontinuation while assessing virological and clinical relapse, provided that treatment was not re-initiated. Virological relapse was defined as HBV DNA ≥ 2000 IU/mL. Clinical relapse was defined as ALT level ≥ 2x ULN in addition to a virological relapse. […] Cumulative incidence of virological and clinical relapse after stop of treatment was assessed by Kaplan-Meier curves including the log-rank test. […] Considering that HBsAg status was representative of disease progression, the association between the SNPs and sustained clinical response was assessed using a logistic model, considering HBsAg levels (high (≥ 100 IU/mL) vs. low (< 100 IU/mL)) at the last visit before end of antiviral treatment. […]
# [4] = tested on: chronic hepatitis B (CHB) patients; assay: Logistic regression model predicting clinical relapse before 6 months after stop of treatment; conditions: Table 12; model with treatment regimen, EOT HBsAg and all SNPs predicting CR
# Procedure: Prediction of Clinical Relapse: The receiver operating characteristic (ROC) curve was analyzed for treatment regimen, EOT HBsAg (≥ 100 IU/mL vs < 100 IU/mL), rs4668818, rs948006, rs2934456, rs77586835, rs75876539, rs8050261, rs1542951, rs231770, rs9277535, or a combination of these covariates, in predicting clinical relapse (CR) after stop of treatment.
# [5] = tested on: chronic hepatitis B (CHB) patients; assay: Logistic regression model predicting viral relapse before 3 months after stop of treatment; conditions: Table 13; model with treatment regimen, EOT HBsAg, baseline HBeAg status and all SNPs predicting VR
# Procedure: Prediction of Virological Relapse: The receiver operating characteristic (ROC) curve was analyzed for treatment regimen, EOT HBsAg (≥ 100 IU/mL vs < 100 IU/mL), baseline HBeAg status, all 30 SNPs associated to virological relapse (VR), or a combination of these covariates, in predicting virological relapse (VR) after stop of treatment are represented on FIG. 22 (3 months), FIG. 23 (6 months), FIG. 24 (1 year) and FIG. 25 (2 years).
# [6] = later after stopping entecavir treatment compared to tenofovir treatment, Example 1
smiles,measurement,setting,value
"C=C1[C@H](CO)[C@@H](O)C[C@@H]1n1cnc2c(=O)[nH]c(N)nc21 [Entecavir, entecavir]","Onset of virological relapse, average delay",[1]; [6],119 days
same,"Onset of clinical relapse, average delay","[2]; among the 110 clinical relapsers, later after stopping entecavir compared to tenofovir, Example 3",100 days
same,"Onset of clinical relapse, average delay",[2]; [6],115 days
"C[C@H](Cn1cnc2c(N)ncnc21)OCP(=O)(O)O [Tenofovir, tenofovir]","Sustained clinical response, univariate analysis OR (95% CI)","[3]; Table 6, treatment regimen vs entecavir",0.79 (0.29-2.03)
same,"Sustained clinical response, univariate analysis OR (95% CI)","[3]; Table 15, Example 2, vs entecavir",0.79 (0.29-2.03)
same,"Clinical relapse before 6 months, odds ratio (Estimate)",[4],4.008
same,"Virological relapse, multivariate analysis HR (95% CI)","[1]; Table 5, Example 1, Cox regression, treatment regimen vs entecavir, after stop of treatment",3.02
same,"Virological relapse, univariate analysis HR (95% CI)","[1]; Table 5, Cox regression, treatment regimen vs entecavir, after stop of treatment, N = 186",2.49 (1.77-3.49)
same,"Time to virological relapse, lasso regression, mean estimated hazard ratio","[1]; Table 11, clinical and genetic covariates, mean across 1000 iterations, vs entecavir",2.662
same,"Virological relapse, multivariate analysis HR (95% CI)","[1]; Table 23a, Example 3, multivariate with age, baseline HBeAg, EOT HBsAg, vs entecavir",2.97 (2.10-4.20)
same,"Virological relapse, multivariate analysis HR (95% CI)","[1]; Table 23a, Example 3, multivariate with age, baseline HBeAg, EOT HBsAg, vs entecavir, listed as tenofovir",2.97
same,"Virological relapse, univariate analysis HR (95% CI)","[1]; Table 23a, Example 3, vs entecavir",2.49 (1.77-3.49)
same,HR,[1]; multivariate Cox model with HBsAg at end of treatment and all 33 SNPs (Table 27a),7.26
same,HR,[1]; multivariate Cox model with HBsAg at end of treatment and the 17 Virological signature SNPs (Table 27b),7.06
same,"Clinical relapse, multivariate analysis HR (95% CI)","[2]; Table 4, Example 1, Cox regression, treatment regimen vs entecavir, after stop of treatment",1.78 (1.20-2.64)
same,"Clinical relapse, multivariate analysis HR (95% CI)","[2]; Table 4, Example 1, Cox regression, treatment regimen vs entecavir, after stop of treatment, listed as tenofovir",1.74
same,"Clinical relapse, univariate analysis HR (95% CI)","[2]; Table 4, Cox regression, treatment regimen vs entecavir, after stop of treatment, N = 186",1.77 (1.19-2.62)
same,"Time to clinical relapse, lasso regression, mean estimated hazard ratio","[2]; Table 10, clinical and genetic covariates, mean across 1000 iterations, vs entecavir",1.492
same,"Clinical relapse, multivariate analysis HR (95% CI)","[2]; Table 23b, Example 3, multivariate with age, EOT HBsAg, vs entecavir",1.87 (1.26-2.78)
same,"Clinical relapse, multivariate analysis HR (95% CI)","[2]; Table 23b, Example 3, multivariate with age, EOT HBsAg, vs entecavir, listed as tenofovir",1.80
same,"Clinical relapse, univariate analysis HR (95% CI)","[2]; Table 23b, Example 3, vs entecavir",1.77 (1.19-2.62)
same,"Clinical relapse HR, Cox model including the Clinical SNP signature","[2]; Table 26b, HBsAg and treatment regimen as main effects plus six SNPs, vs entecavir",1.89
same,HR,"[2]; hazard ratio for clinical relapse after stop of treatment, treatment regimen tenofovir vs entecavir, multivariate Cox model with HBsAg at end of treatment and all nine SNPs",1.75
same,"Viral relapse before 3 months, odds ratio (Estimate)",[5],3010
